Test results taken from US20240009173A1, “Use of 5-HT3-Targeting Drugs for Treatment of Acute Kidney Injury” (priority 2020, published 2024).
Read-outs that look alike come from different tables or passages of the source.

Assays:
[1] = test system: patients with AKI; settings: human, in vivo
[2] = test system: patients with AKI; settings: human, in vivo; remark: listed apart in the source
[3] = test system: patients without AKI on admission or prior to receiving drug; test: Anti-emetic usage and AKI risk in first ICU encounter: usage, max KDIGO category, binary logistic regression (Example 3); type: in vivo, human; settings: for MAX KDIGO AKI Category 0 (%) / MAX KDIGO AKI Category 0, number of patients / MAX KDIGO AKI Category 1 (%) / MAX KDIGO AKI Category 1, number of patients / MAX KDIGO AKI Category 2 (%) / MAX KDIGO AKI Category 2, number of patients / MAX KDIGO AKI Category 3 (%) / MAX KDIGO AKI Category 3, number of patients: drug users, use before discharge/death or before AKI
Source text: Study Population: The study population excludes patients with end-stage kidney disease and excludes patients with Acute Kidney Injury on admission or prior to receiving drug. […] Metoclopramide is primarily a dopamine D2 receptor antagonist anti-emetic. […] Prochlorperazine is primarily a dopamine receptor antagonist anti-emetic. […] This was a binary logistic regression with an outcome of experiencing any AKI within a first ICU encounter. The independent variable was use of anti-emetic prior to AKI (or before discharge if no AKI). […] The independent variable was use of anti-emetic prior to AKI (or before discharge if no AKI). […] The outcome was experiencing any AKI. The […] was the use of medication within the average time prior to AKI.

[4] = test system: ICU patients; test: Anti-emetic use and in-ICU death, logistic regression (Example 3); type: in vivo, human; settings: outcome in-ICU death
[5] = test system: all ICU patients; settings: cited from earlier work
[6] = test system: ICU patients with AKI; settings: cited from earlier work
[7] = test system: patients with AKI; design: species or system human; settings: in vivo
[8] = test system: patients with AKI; test: Validation in eICU database: propensity score matching, chi-square test of ICU mortality (Example 4); type: in vivo, human
[9] = test system: Intestine of rats; settings: cited from earlier work
[10] = test system: Fridericia-corrected QTc interval; settings: 32 mg, 15 minute infusion, cited from earlier work
[11] = outcome AKI Category 2 or 3 vs Category 0 or 1, use of anti-emetic prior to AKI (or before discharge)
[12] = outcome any AKI within first ICU encounter, use of anti-emetic prior to AKI (or before discharge if no AKI)
[13] = outcome any AKI, use of medication within the average time prior to AKI
[14] = use of medication within average time prior to AKI
[15] = use within average time prior to AKI and Apache Score on ICU admission
[16] = literature and/or clinical trials
[17] = after matching, 3423 patients in group
[18] = 84 mg-kg in water by oral gavage 0.25d vs vehicle
[19] = gene negatively correlated with eGFR in human AKI cohort
[20] = rat intestine, 84 mg-kg oral gavage, 0.25d vs vehicle

CCN(CC)CCNC(=O)c1cc(Cl)c(N)cc1OC [Metoclopramide]
Death rate in MIMIC III database [1]: 248.67 per 1,000 patients | Death rate in eICU database [2]: 158.32 per 1,000 patients | MAX KDIGO AKI Category 0 (%) [3]: (72.54) % | MAX KDIGO AKI Category 0, number of patients [3]: 3,830 | MAX KDIGO AKI Category 1 (%) [3]: (14.05) % | MAX KDIGO AKI Category 1, number of patients [3]: 742 | MAX KDIGO AKI Category 2 (%) [3]: (6.91) % | MAX KDIGO AKI Category 2, number of patients [3]: 365 | MAX KDIGO AKI Category 3 (%) [3]: (6.50) % | MAX KDIGO AKI Category 3, number of patients [3]: 343 | Odds Ratio [3, 11]: 1.033 | Odds Ratio [3, 12]: 0.408 | Odds Ratio [3, 13]: 1.249 | Odds Ratio [4, 14]: 1.270 | Odds Ratio [4, 15]: 1.08 | Reported for protecting effect in all ICU patients [5, 16]: N | Reported for protecting effect in ICU patients with AKI [6, 16]: N

Cc1ncc2n1-c1ccc(Cl)cc1C(c1ccccc1F)=NC2 [Midazolam]
Death rate in MIMIC III database [1]: 899.95 per 1,000 patients | Death rate in eICU database [2]: 273.07 per 1,000 patients | Coefficient [7]: 0.027 | Reported for protecting effect in all ICU patients [5]: Y^20 | Reported for protecting effect in ICU patients with AKI [6]: N

CN1CC[C@]23c4c5ccc(O)c4O[C@H]2[C@@H](O)C=C[C@H]3[C@H]1C5 [Morphine]
Death rate in MIMIC III database [1]: 376.48 per 1,000 patients | Death rate in eICU database [2]: 234.81 per 1,000 patients | Coefficient [7]: 0.198 | Reported for protecting effect in all ICU patients [5]: Y^1 | Reported for protecting effect in ICU patients with AKI [6]: N

NC[C@H](O)c1ccc(O)c(O)c1 [Norepinephrine]
Death rate in MIMIC III database [1]: 497.51 per 1,000 patients | Death rate in eICU database [2]: 336.62 per 1,000 patients | Coefficient [7]: 0.167 | Reported for protecting effect in all ICU patients [5, 16]: Y^2 | Reported for protecting effect in ICU patients with AKI [6, 16]: N

Cc1nccn1CC1CCc2c(c3ccccc3n2C)C1=O (centres unmarked) [Ondansetron]
Death rate in MIMIC III database [1]: 140.91 per 1,000 patients | average death rate [1]: 14.1% | Death rate in eICU database [2]: 124.87 per 1,000 patients | MAX KDIGO AKI Category 0 (%) [3]: 73.54% | MAX KDIGO AKI Category 0, number of patients [3]: 32,447 | MAX KDIGO AKI Category 1 (%) [3]: 13.92% | MAX KDIGO AKI Category 1, number of patients [3]: 6,143 | MAX KDIGO AKI Category 2 (%) [3]: 6.68% | MAX KDIGO AKI Category 2, number of patients [3]: 2,946 | MAX KDIGO AKI Category 3 (%) [3]: 5.87% | MAX KDIGO AKI Category 3, number of patients [3]: 2,588 | Odds Ratio [3, 12]: 0.403 | Odds Ratio [3, 13]: 0.906 | Odds Ratio ([3]; outcome any AKI, use of medication within the average time prior to AKI, listed as ondansetron): protective | Odds Ratio [4, 14]: 0.460 | Coefficient [7]: −0.035 | Alive (patients) [8, 17]: 2993 | Death (patients) [8, 17]: 430 | ICU mortality ([8]; after propensity score matching, 3,423 patients per group): 12.56% | Number Need to Treat (NNT) ([8]; eICU patients, 95% confidence interval 23.61, 103.72): 38.46 | Reported for protecting effect in all ICU patients [5, 16]: N | Reported for protecting effect in ICU patients with AKI [6, 16]: N | Genes (differentially expressed genes in bioset) [9, 18]: 1,815 | down-regulated genes [9, 18]: 722 | up-regulated genes [9, 18]: 1,093 | Gene expression fold change by Ondansetron treatment: AMACR [9, 19]: −2.38 | Gene expression fold change by Ondansetron treatment: CASP1 [9, 19]: −8.03 | Gene expression fold change by Ondansetron treatment: CPD [9, 19]: −2.4 | Gene expression fold change by Ondansetron treatment: GBP2 [9, 19]: −4.71 | Gene expression fold change by Ondansetron treatment: KPNA2 [9, 19]: 1.68 | Gene expression fold change by Ondansetron treatment: MCL1 [9, 19]: −3.07 | Gene expression fold change by Ondansetron treatment: MET [9, 19]: −2.32 | Gene expression fold change by Ondansetron treatment: TFPI [9, 19]: 4.25 | gene expression fold change: Axin2 [9, 20]: 2.12 | gene expression fold change: Birc2 [9, 20]: −2.85 | gene expression fold change: Casp3 [9, 20]: −4.18 | gene expression fold change: Cdc42 [9, 20]: −1.7 | gene expression fold change: Cdkn2b [9, 20]: −3.79 | gene expression fold change: Crk [9, 20]: −2.78 | gene expression fold change: Ctbp2 [9, 20]: −10.3 | gene expression fold change: Ctnna1 [9, 20]: −2.95 | gene expression fold change: Ctnnb1 [9, 20]: −6.88 | gene expression fold change: Cycs [9, 20]: −2.08 | gene expression fold change: Erbb2 [9, 20]: −2.24 | gene expression fold change: Fn1 [9, 20]: −10.3 | gene expression fold change: Gsk3b [9, 20]: 2.3 | gene expression fold change: Hdac1 [9, 20]: 1.52 | gene expression fold change: Itgb1 [9, 20]: −3.18 | gene expression fold change: Jak1 [9, 20]: −10.7 | gene expression fold change: Kras [9, 20]: −2.58 | gene expression fold change: Lamb2 [9, 20]: −4.03 | gene expression fold change: Mapk1 [9, 20]: −4.09 | gene expression fold change: Mapk3 [9, 20]: −1.98 | gene expression fold change: Mapk9 [9, 20]: −5.48 | gene expression fold change: Mecom [9, 20]: 1.46 | gene expression fold change: Met [9, 20]: −2.32 | gene expression fold change: Msh2 [9, 20]: −2.29 | gene expression fold change: Mtor [9, 20]: −1.75 | gene expression fold change: Pdgfrb [9, 20]: 1.49 | gene expression fold change: Pik3r1 [9, 20]: −3.77 | gene expression fold change: Plcg2 [9, 20]: −1.63 | gene expression fold change: Pld1 [9, 20]: −5.95 | gene expression fold change: Prkcb [9, 20]: −3.73 | gene expression fold change: Pten [9, 20]: −4.92 | gene expression fold change: Raf1 [9, 20]: 1.51 | gene expression fold change: Rb1 [9, 20]: −9.02 | gene expression fold change: Smo [9, 20]: −2.45 | gene expression fold change: Sos2 [9, 20]: 2.47 | gene expression fold change: Tgfa [9, 20]: −3.86 | gene expression fold change: Tgfb1 [9, 20]: −1.54 | gene expression fold change: Tgfb3 [9, 20]: 1.83 | gene expression fold change: Tpr [9, 20]: −1.93 | maximum mean (upper limit of 90% CI) difference in QTcF from placebo after baseline-correction ([10]; at 20 minutes): 19.6 (21.5) msec | period in which prolongation of QTcF was observed after start of infusion [10]: 15 to 240 min

COc1ccc2c3c1O[C@H]1C(=O)CC[C@@]4(O)[C@@H](C2)N(C)CC[C@]314 [Oxycodone]
Death rate in MIMIC III database [1]: 94.98 per 1,000 patients | Death rate in eICU database [2]: 55.56 per 1,000 patients | Coefficient [7]: −0.089 | Reported for protecting effect in all ICU patients [5]: Y^9 | Reported for protecting effect in ICU patients with AKI [6]: N

CN1CCN(CCCN2c3ccccc3Sc3ccc(Cl)cc32)CC1 [Prochlorperazine]
MAX KDIGO AKI Category 0 (%) [3]: (73.48) % | MAX KDIGO AKI Category 0, number of patients [3]: 2,488 | MAX KDIGO AKI Category 1 (%) [3]: (14.77) % | MAX KDIGO AKI Category 1, number of patients [3]: 500 | MAX KDIGO AKI Category 2 (%) [3]: (5.88) % | MAX KDIGO AKI Category 2, number of patients [3]: 199 | MAX KDIGO AKI Category 3 (%) [3]: (5.88) % | MAX KDIGO AKI Category 3, number of patients [3]: 199 | Odds Ratio [3, 11]: 0.90 | Odds Ratio [3, 12]: 0.457 | Odds Ratio [3, 13]: 0.988 | Odds Ratio [4, 14]: 0.736 | Odds Ratio [4, 15]: 0.879

CC(=O)CC(c1ccccc1)c1c(O)c2ccccc2oc1=O (centres unmarked) [Warfarin]
Death rate in MIMIC III database [1]: 67.31 per 1,000 patients | Death rate in eICU database [2]: 35.34 per 1,000 patients | Coefficient [7]: −0.115 | Reported for protecting effect in all ICU patients [5, 16]: Y^1 | Reported for protecting effect in ICU patients with AKI [6, 16]: N

Heparin
Death rate in MIMIC III database [1]: 210.41 per 1,000 patients | Death rate in eICU database [2]: 143.03 per 1,000 patients | Coefficient [7]: −0.053 | Reported for protecting effect in all ICU patients [5, 16]: Y^10 | Reported for protecting effect in ICU patients with AKI [6, 16]: N
